Assay results as given in patent publication US9040663B2, “Melanocortin receptor-specific peptides” (AstraZeneca AB, priority 2009, dated 2015).
Where two headings read alike, the source gives them in different places. Positions of bridges follow the written chain, without caps; N, C: chain ends. Non-standard residues stand in square brackets, D forms with d. Residues, ends and D or L forms follow the SMILES beside them. dPhe(4-CN) = N#Cc1ccc(C[C@@H](N)C(=O)O)cc1; dPhe(2-F) = N[C@H](Cc1ccccc1F)C(=O)O; Orn = NCCC[C@H](N)C(=O)O

Experiments:
hMC4-R [1] = molecular target: T1, hMC4-R (Homo sapiens (Human), UniProt P32245); assay: Competitive inhibition binding assay using [I125]-NDP-α-MSH, hMC4-R; settings: membranes of HEK-293 cells expressing recombinant hMC4-R, read-out: MC4-R Ki
Protocol: 7.1 Competitive Inhibition Assay using [I^125]-NDP-α-MSH.
A competitive inhibition binding assay was performed for exemplified peptides according to the invention using membrane homogenates prepared from HEK-293 cells that express recombinant hMC4-R, hMC3-R, or hMC5-R, and from B-16 mouse melanoma cells (containing endogenous MC1-R). In some instances, HEK-293 cells that express recombinant hMC1-R were employed. Assays were performed in 96 well GF/B Millipore multiscreen filtration plates (MAFB NOB10) pre-coated with 0.5% bovine serum albumin (Fraction V). Membrane homogenates were incubated with 0.2 nM (for hMC4-R) 0.4 nM (for MC3-R and MC5-R) or 0.1 nM (for mouse B16 MC1-R or hMC1-R) [I^125]-NDP-α-MSH (Perkin Elmer) and increasing concentrations of test peptides of the present invention in buffer containing 25 mM HEPES buffer (pH 7.5) with 100 mM NaCl, 2 mM CaCl2, 2 mM MgCl2, 0.3 mM 1,10-phenanthroline, and 0.2% bovine serum albumin. After incubation for 60 minutes at 37° C., the assay mixture was filtered and the membranes washed three times with ice-cold buffer. Filters were dried and counted in a gamma counter for bound radioactivity. […] Maximal specific binding (100%) was defined as the difference in radioactivity (cpm) bound to cell membranes in the absence and presence of 1 μM NDP-α-MSH. […] Each assay was conducted in triplicate and the actual mean values are described, with results less than 0% reported as 0%. Ki values for test peptides of the present invention were determined using Graph-Pad Prism® curve-fitting software.

hMC4-R [2] = molecular target: T1, hMC4-R; assay: High and low density hMC4-R functional assay (cAMP, HEK293-T-REx-MC4-R cells); type: cell-based; settings: for Emax: NDP-α-MSH = 100%, read-out: Intrinsic Activity (%)
Protocol: The cells were then dispensed into 96-well plates (BD 353916) in 198 μL (about 5×10^4) cells/well and incubated for 10 minutes at 37° C. The compound to be tested was diluted with DMSO to a final concentration of 1 mM. […] 120 μL of the 1 mM compound stock was pipetted in the second column on the plate. […] All assay samples were run in duplicate (i.e. each sample was in two low dox and two high dox plates, respectively). The plates were gently shaken and incubated for 15 minutes at 37° C.

[3] = 0.1 ng/mL Doxycycline (low density hMC4-R system)
[4] = 10 ng/mL Doxycycline (high density hMC4-R system)

T1 sequence (P32245 whole entry): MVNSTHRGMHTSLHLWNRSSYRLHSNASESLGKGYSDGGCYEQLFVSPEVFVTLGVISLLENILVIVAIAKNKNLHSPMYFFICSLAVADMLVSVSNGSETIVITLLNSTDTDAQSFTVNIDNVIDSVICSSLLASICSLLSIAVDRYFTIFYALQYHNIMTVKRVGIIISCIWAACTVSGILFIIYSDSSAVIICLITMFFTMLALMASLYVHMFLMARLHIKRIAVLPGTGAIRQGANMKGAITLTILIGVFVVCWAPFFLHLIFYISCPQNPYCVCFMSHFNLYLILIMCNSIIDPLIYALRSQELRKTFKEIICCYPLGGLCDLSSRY

| Compound | Ki (hMC4-R [1]) | EC50 (hMC4-R [2]; [3]) | Emax (hMC4-R [2]; [3]) | EC50 (hMC4-R [2]; [4]) | Emax (hMC4-R [2]; [4]) |
| --- | --- | --- | --- | --- | --- |
| CC(=O)N[C@@H](CCCNC(=N)N)C(=O)N[C@H]1CCC(=O)NCCC[C@@H](C(N)=O)NC(=O)[C@H](Cc2c[nH]c3ccccc23)NC(=O)[C@H](CCCNC(=N)N)NC(=O)[C@@H](Cc2cccc(Cl)c2)NC(=O)[C@H](CO)NC1=O [Example 35, Ac-Arg-cyclo(Glu-Ser-D-Phe(3-Cl)-Arg-Trp-Orn)-NH2] | 10 nM |  | 6% | 1 nM | 84% |
| CC(=O)N[C@@H](CCCNC(=N)N)C(=O)N[C@H]1CCC(=O)NCCC[C@@H](C(N)=O)NC(=O)[C@H](Cc2c[nH]c3ccccc23)NC(=O)[C@H](CCCNC(=N)N)NC(=O)[C@@H](Cc2ccc(C(C)(C)C)cc2)NC(=O)[C@H](CCN)NC1=O [Example 30, Ac-Arg-cyclo(Glu-Dab-D-Phe(4-tBu)-Arg-Trp-Orn)-NH2] | 4 nM |  | 2% | 25 nM | 9% |
| CC(=O)N[C@@H](CCCNC(=N)N)C(=O)N[C@H]1CCC(=O)NCCC[C@@H](C(N)=O)NC(=O)[C@H](Cc2c[nH]c3ccccc23)NC(=O)[C@H](CCCNC(=N)N)NC(=O)[C@@H](Cc2cccc([N+](=O)[O-])c2)NC(=O)[C@H](CCN)NC1=O [Example 23, Ac-Arg-cyclo(Glu-Dab-D-Phe(3-NO2)-Arg-Trp-Orn)-NH2] | 0.7 nM | 2 nM | 17% | 0.55 nM | 95% |
| CC(=O)N[C@@H](CCCNC(=N)N)C(=O)N[C@H]1CCC(=O)NCCC[C@@H](C(N)=O)NC(=O)[C@H](Cc2c[nH]c3ccccc23)NC(=O)[C@H](CCCNC(=N)N)NC(=O)[C@@H](Cc2ccc(C#N)cc2)NC(=O)[C@H](C(C)C)NC1=O [Example 42, Ac-Arg-cyclo(Glu-Val-D-Phe(4-CN)-Arg-Trp-Orn)-NH2] | 6 nM |  | 9% | 0.5 nM | 84% |
| CC(=O)N[C@@H](CCCNC(=N)N)C(=O)N[C@H]1CCC(=O)NCCC[C@@H](C(N)=O)NC(=O)[C@H](Cc2c[nH]c3ccccc23)NC(=O)[C@H](CCCNC(=N)N)NC(=O)[C@@H](Cc2ccc(F)cc2)NC(=O)[C@@H]2CCCN2C1=O [Example 102, Ac-Arg-cyclo(Glu-Pro-D-Phe(4-F)-Arg-Trp-Orn)-OH] |  | 18 nM |  |  |  |
| CC(=O)N[C@@H](CCCNC(=N)N)C(=O)N[C@H]1CC(=O)NCCCC[C@@H](C(N)=O)NC(=O)[C@H](Cc2c[nH]c3ccccc23)NC(=O)[C@H](CCCNC(=N)N)NC(=O)[C@@H](Cc2ccccc2F)NC(=O)[C@@H]2CCCN2C1=O [Example 104, Ac-Arg-cyclo(Asp-Pro-D-Phe(2-F)-Arg-Trp-Lys)-NH2] |  |  | 16% | 10 nM | 100% |
| CC(=O)N[C@@H](CCCNC(=N)N)C(=O)N[C@H]1CCC(=O)NCCC[C@@H](C(=O)O)NC(=O)[C@H](Cc2c[nH]c3ccccc23)NC(=O)[C@H](CCCNC(=N)N)NC(=O)[C@@H](Cc2ccc(C#N)cc2)NC(=O)[C@H](CC(N)=O)NC1=O [Example 85, Ac-Arg-cyclo(Glu-Asn-D-Phe(4-CN)-Arg-Trp-Orn)-OH] |  | 15 nM | 36% |  | 94% |
| CC(=O)N[C@@H](CCCNC(=N)N)C(=O)N[C@H]1CCC(=O)NCCC[C@@H](C(=O)O)NC(=O)[C@H](Cc2c[nH]c3ccccc23)NC(=O)[C@H](CCCNC(=N)N)NC(=O)[C@@H](Cc2ccc(C#N)cc2)NC(=O)[C@H](CCC(=O)O)NC1=O [Example 109, Ac-Arg-cyclo(Glu-Glu-D-Phe(4-CN)-Arg-Trp-Orn)-OH] (Ac-REE[dPhe(4-CN)]RW[Orn]-OH; lactam 2-7) |  |  | 2% |  | 69% |

More lines, in order of falling EC50 (hMC4-R [2]; [4]), values ahead:

| Ki (hMC4-R [1]) | EC50 (hMC4-R [2]; [3]) | Emax (hMC4-R [2]; [3]) | EC50 (hMC4-R [2]; [4]) | Emax (hMC4-R [2]; [4]) | Compound |
| --- | --- | --- | --- | --- | --- |
|  | 4 nM | 23% | 0.45 nM | 85% | CC(=O)N[C@H](CCCNC(=N)N)C(=O)N[C@H]1CC(=O)NCCCC[C@@H](C(N)=O)NC(=O)[C@H](Cc2c[nH]c3ccccc23)NC(=O)[C@H](CCCNC(=N)N)NC(=O)[C@@H](Cc2ccc(C#N)cc2)NC(=O)[C@H](CCC(N)=O)NC1=O [Example 81, Ac-D-Arg-cyclo(Asp-Gln-D-Phe(4-CN)-Arg-Trp-Lys)-NH2] |
| 4 nM | 1 nM | 18% | 0.265 nM | 96% | CC(=O)N[C@@H](CCCNC(=N)N)C(=O)N[C@H]1CCCNC(=O)CC[C@@H](C(N)=O)NC(=O)[C@H](Cc2c[nH]c3ccccc23)NC(=O)[C@H](CCCNC(=N)N)NC(=O)[C@@H](Cc2ccc(C#N)cc2)NC(=O)[C@H](CC(N)=O)NC1=O [Example 91, Ac-Arg-cyclo(Orn-Asn-D-Phe(4-CN)-Arg-Trp-Glu)-NH2] |
| 8 nM | 2 nM | 48% | 0.2 nM | 89% | CC(=O)N[C@H](CCCNC(=N)N)C(=O)N[C@H]1CC(=O)NCCCC[C@@H](C(N)=O)NC(=O)[C@H](Cc2c[nH]c3ccccc23)NC(=O)[C@H](CCCNC(=N)N)NC(=O)[C@@H](Cc2ccc(F)c(F)c2)NC(=O)[C@H](CCC(N)=O)NC1=O [Example 78, Ac-D-Arg-cyclo(Asp-Gln-D-Phe(3,4-diF)-Arg-Trp-Lys)-NH2] |
| 7 nM | 3 nM | 35% | 0.15 nM | 94% | CC(=O)N[C@@H](CCCNC(=N)N)C(=O)N[C@H]1CCCNC(=O)CC[C@@H](C(N)=O)NC(=O)[C@H](Cc2c[nH]c3ccccc23)NC(=O)[C@H](CCCNC(=N)N)NC(=O)[C@@H](Cc2ccccc2F)NC(=O)[C@@H]2CCCN2C1=O [Example 105, Ac-Arg-cyclo(Orn-Pro-D-Phe(2-F)-Arg-Trp-Glu)-NH2] (Ac-R[Orn]P[dPhe(2-F)]RWE-NH2; lactam 2-7) |
|  | 0.45 nM | 47% | 0.14 nM | 100% | CC(=O)N[C@@H](CCCNC(=N)N)C(=O)N[C@H]1CCCNC(=O)CC[C@@H](C(N)=O)NC(=O)[C@H](Cc2c[nH]c3ccccc23)NC(=O)[C@H](CCCNC(=N)N)NC(=O)[C@@H](Cc2cc(F)c(F)c(F)c2)NC(=O)[C@H](CCC(N)=O)NC1=O [Example 98, Ac-Arg-cyclo(Orn-Gln-D-Phe(3,4,5-triF)-Arg-Trp-Glu)-NH2] |
|  |  | 49% | 0.1 nM | 100% | CC(=O)N[C@@H](CCCNC(=N)N)C(=O)N[C@H]1CCC(=O)NCCC[C@@H](C(=O)O)NC(=O)[C@H](Cc2c[nH]c3ccccc23)NC(=O)[C@H](CCCNC(=N)N)NC(=O)[C@@H](Cc2cc(F)c(F)c(F)c2)NC(=O)[C@H](CCC(N)=O)NC1=O [Example 97, Ac-Arg-cyclo(Glu-Gln-D-Phe(3,4,5-triF)-Arg-Trp-Orn)-NH2] |
| 10 nM | 2 nM | 79% | 0.095 nM | 95% | CC(=O)N[C@H](CCCNC(=N)N)C(=O)N[C@H]1CC(=O)NCCCC[C@@H](C(N)=O)NC(=O)[C@H](Cc2c[nH]c3ccccc23)NC(=O)[C@H](CCCNC(=N)N)NC(=O)[C@@H](Cc2ccccc2F)NC(=O)[C@H](CCC(N)=O)NC1=O [Example 82, Ac-D-Arg-cyclo(Asp-Gln-D-Phe(2-F)-Arg-Trp-Lys)-NH2] |
|  |  | 32% | 0.09 nM | 92% | CC(=O)N[C@@H](CCCNC(=N)N)C(=O)N[C@H]1CCCNC(=O)CC[C@@H](C(N)=O)NC(=O)[C@H](Cc2c[nH]c3ccccc23)NC(=O)[C@H](CCCNC(=N)N)NC(=O)[C@@H](Cc2ccc(C#N)cc2)NC(=O)[C@H](CCC(N)=O)NC1=O [Example 94, Ac-Arg-cyclo(Orn-Gln-D-Phe(4-CN)-Arg-Trp-Glu)-NH2] |
| 0.25 nM | 0.075 nM | 56% | 0.075 nM | 92% | CC(=O)N[C@H](CCCNC(=N)N)C(=O)N[C@H]1CCCNC(=O)CC[C@@H](C(N)=O)NC(=O)[C@H](Cc2c[nH]c3ccccc23)NC(=O)[C@H](CCCNC(=N)N)NC(=O)[C@@H](Cc2ccc(F)c(F)c2)NC(=O)[C@H](Cc2c[nH]cn2)NC1=O [Example 54, Ac-D-Arg-cyclo(Orn-His-D-Phe(3,4-diF)-Arg-Trp-Glu)-NH2] |
| 4 nM |  | 83% | 0.07 nM | 101% | CC(=O)N[C@@H](CCCNC(=N)N)C(=O)N[C@H]1CCCNC(=O)CC[C@@H](C(N)=O)NC(=O)[C@H](Cc2c[nH]c3ccccc23)NC(=O)[C@H](CCCNC(=N)N)NC(=O)[C@@H](Cc2ccccc2Cl)NC(=O)[C@H](CCC(N)=O)NC1=O [Example 112, Ac-Arg-cyclo(Orn-Gln-D-Phe(2-Cl)-Arg-Trp-Glu)-NH2] |
